The kinase profiling compilation of Christmann-Franck et al. (2016)
Values belong to the compound of their own block, whether it stands above or below them.

Legend:
Test in all cases: radiometric filter-binding kinase assay
[1] = biological target: PRKCG (human) (UniProt P05129)
[2] = biological target: PLK1 (human) (UniProt P53350)
[3] = biological target: TSSK1B (human) (UniProt Q9BXA7)
[4] = biological target: ZAP70 (human) (UniProt P43403)
[5] = biological target: STK16 (human) (UniProt O75716)
[6] = biological target: TESK1 (human) (UniProt Q15569)
[7] = biological target: TEK (human) (UniProt Q02763)
[8] = biological target: EIF2AK3 (human) (UniProt Q9NZJ5)
[9] = biological target: ABL1 (human) (UniProt P00519)
[10] = biological target: IRAK1 (human) (UniProt P51617)
[11] = biological target: TTBK1 (human) (UniProt Q5TCY1)
[12] = biological target: PTK6 (human) (UniProt Q13882)
[13] = biological target: STK33 (human) (UniProt Q9BYT3)
[14] = biological target: TLK1 (human) (UniProt Q9UKI8)
[15] = system: OXSR1 (human), O95747 [T185E]
Sequence of OXSR1 (human), O95747 [T185E] (O95747 whole entry T185E, looked up): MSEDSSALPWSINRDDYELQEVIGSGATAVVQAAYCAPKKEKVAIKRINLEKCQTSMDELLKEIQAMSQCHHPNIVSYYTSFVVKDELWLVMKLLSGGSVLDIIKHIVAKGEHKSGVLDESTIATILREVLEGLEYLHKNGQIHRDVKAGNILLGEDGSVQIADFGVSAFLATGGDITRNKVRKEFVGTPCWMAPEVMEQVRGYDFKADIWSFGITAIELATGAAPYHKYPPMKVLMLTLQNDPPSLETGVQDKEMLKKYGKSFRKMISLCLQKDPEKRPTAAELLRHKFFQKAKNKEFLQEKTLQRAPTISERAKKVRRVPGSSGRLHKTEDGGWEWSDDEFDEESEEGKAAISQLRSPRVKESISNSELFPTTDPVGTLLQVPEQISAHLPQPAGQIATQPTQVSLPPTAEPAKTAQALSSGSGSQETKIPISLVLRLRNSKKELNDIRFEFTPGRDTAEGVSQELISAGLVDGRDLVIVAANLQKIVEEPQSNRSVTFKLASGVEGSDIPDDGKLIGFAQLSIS

Sequence of PLK1 (human) (P53350 whole entry, looked up): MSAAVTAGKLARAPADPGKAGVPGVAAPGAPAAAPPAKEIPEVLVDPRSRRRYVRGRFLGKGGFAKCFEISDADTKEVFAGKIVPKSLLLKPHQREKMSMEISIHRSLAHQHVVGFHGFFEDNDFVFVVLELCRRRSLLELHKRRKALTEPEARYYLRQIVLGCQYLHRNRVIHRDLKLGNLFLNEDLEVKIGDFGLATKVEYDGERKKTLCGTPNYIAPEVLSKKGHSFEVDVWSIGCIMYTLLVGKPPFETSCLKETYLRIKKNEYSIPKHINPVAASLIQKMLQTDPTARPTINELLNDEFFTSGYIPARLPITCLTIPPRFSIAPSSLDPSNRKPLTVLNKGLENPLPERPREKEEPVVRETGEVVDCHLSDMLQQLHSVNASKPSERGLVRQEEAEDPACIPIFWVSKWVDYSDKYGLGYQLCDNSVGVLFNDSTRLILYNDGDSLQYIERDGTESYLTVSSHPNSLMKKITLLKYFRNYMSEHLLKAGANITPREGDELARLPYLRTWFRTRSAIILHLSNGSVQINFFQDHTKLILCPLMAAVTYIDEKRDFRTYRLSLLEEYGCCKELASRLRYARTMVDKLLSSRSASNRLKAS
Sequence of EIF2AK3 (human) (Q9NZJ5 whole entry, looked up): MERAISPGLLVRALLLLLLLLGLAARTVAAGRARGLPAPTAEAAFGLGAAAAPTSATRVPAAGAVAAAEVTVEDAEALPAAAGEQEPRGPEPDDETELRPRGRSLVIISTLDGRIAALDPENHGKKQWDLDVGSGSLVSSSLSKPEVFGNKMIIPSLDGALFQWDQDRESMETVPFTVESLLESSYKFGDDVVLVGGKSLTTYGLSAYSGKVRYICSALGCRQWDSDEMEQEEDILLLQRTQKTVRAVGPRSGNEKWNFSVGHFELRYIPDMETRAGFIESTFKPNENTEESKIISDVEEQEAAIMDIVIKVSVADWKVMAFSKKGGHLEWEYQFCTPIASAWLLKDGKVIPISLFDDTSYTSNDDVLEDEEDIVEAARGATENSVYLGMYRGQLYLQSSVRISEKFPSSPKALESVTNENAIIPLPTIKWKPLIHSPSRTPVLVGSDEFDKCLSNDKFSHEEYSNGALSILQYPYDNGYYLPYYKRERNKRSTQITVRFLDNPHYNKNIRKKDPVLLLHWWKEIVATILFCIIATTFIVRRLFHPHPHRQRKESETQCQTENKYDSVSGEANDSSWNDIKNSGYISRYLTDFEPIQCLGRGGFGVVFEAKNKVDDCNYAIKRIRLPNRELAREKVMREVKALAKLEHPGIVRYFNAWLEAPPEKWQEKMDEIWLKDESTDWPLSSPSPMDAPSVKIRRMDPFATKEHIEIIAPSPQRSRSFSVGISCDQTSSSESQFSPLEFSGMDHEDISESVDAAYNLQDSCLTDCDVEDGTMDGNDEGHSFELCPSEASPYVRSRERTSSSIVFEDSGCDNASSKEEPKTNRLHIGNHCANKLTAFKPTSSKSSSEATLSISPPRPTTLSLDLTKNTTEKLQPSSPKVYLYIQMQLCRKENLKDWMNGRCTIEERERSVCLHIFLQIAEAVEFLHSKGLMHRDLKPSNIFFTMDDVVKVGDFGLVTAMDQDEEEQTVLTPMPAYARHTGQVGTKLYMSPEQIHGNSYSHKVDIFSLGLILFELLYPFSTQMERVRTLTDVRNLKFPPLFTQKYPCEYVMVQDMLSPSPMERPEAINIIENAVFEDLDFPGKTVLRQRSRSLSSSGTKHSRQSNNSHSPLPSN
Sequence of TESK1 (human) (Q15569 whole entry, looked up): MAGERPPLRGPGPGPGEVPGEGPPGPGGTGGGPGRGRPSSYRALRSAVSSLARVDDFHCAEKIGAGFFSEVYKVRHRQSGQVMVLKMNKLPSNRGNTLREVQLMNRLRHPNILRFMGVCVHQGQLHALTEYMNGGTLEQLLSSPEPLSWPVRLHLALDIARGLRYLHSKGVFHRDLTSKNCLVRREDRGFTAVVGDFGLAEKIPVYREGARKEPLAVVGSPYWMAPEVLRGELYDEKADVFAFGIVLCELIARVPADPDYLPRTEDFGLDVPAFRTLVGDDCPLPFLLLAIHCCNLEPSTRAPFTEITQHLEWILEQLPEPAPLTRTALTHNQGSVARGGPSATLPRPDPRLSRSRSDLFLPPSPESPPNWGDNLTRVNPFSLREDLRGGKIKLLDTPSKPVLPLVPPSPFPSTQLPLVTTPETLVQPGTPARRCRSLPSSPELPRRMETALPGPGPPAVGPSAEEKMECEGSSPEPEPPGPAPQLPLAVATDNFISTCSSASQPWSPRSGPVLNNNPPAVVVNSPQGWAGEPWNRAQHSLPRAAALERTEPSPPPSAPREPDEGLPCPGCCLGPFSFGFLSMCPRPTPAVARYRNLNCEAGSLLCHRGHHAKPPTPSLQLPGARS
Sequence of TTBK1 (human) (Q5TCY1 whole entry, looked up): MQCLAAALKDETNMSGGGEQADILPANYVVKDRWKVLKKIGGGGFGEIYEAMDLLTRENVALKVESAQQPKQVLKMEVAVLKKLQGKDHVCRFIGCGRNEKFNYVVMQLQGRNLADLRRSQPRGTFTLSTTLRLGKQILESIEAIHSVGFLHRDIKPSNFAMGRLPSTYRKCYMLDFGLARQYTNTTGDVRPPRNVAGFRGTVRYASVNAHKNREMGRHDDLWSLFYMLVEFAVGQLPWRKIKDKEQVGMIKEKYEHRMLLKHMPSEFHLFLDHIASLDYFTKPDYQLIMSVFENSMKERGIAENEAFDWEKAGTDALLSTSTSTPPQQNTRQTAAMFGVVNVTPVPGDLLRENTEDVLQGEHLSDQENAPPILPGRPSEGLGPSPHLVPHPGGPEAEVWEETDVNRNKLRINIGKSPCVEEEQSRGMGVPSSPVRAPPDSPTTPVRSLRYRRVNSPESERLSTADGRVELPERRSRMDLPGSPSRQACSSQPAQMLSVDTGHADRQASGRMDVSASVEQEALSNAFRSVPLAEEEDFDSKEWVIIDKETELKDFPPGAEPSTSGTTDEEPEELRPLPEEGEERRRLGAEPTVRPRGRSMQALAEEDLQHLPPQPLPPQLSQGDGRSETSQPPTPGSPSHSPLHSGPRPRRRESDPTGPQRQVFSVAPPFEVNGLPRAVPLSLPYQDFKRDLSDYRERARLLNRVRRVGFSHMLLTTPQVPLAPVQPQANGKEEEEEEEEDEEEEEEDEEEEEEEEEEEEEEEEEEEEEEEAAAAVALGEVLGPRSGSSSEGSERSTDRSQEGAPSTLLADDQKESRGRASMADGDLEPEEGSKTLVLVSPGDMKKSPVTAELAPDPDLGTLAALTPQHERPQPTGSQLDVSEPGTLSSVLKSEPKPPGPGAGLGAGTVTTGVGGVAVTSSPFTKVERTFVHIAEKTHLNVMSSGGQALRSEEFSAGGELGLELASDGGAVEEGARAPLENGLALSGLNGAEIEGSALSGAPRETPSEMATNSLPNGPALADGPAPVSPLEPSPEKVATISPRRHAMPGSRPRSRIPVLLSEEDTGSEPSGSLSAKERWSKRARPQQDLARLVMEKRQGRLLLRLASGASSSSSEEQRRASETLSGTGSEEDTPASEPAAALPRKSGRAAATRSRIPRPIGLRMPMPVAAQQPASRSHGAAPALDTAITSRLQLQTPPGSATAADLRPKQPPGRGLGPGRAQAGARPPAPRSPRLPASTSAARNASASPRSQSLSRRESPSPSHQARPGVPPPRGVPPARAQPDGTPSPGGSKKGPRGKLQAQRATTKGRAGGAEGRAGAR
Sequence of ZAP70 (human) (P43403 whole entry, looked up): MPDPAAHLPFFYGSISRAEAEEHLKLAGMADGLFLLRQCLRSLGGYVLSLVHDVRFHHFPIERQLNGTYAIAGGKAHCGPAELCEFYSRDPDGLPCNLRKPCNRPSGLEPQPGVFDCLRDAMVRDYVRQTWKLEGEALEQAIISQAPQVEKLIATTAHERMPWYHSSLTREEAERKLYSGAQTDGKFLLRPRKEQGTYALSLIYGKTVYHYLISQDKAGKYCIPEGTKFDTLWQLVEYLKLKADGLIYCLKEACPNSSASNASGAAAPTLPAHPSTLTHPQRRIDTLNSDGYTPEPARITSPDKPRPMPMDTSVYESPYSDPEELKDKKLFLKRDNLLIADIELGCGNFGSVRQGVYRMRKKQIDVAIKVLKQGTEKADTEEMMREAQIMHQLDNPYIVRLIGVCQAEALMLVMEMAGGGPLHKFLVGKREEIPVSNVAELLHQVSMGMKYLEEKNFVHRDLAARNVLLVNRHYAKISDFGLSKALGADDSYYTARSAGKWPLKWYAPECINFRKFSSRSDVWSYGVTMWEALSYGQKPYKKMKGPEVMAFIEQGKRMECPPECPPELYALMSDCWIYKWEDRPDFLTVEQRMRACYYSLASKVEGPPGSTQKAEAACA

- residual activity ([1]; compound 0.1 µM): 117%
- residual activity ([1]; compound 1.0 µM): 71%
- residual activity ([2]; compound 0.1 µM): 90%
- residual activity ([2]; compound 1.0 µM): 91%
- residual activity ([3]; compound 0.1 µM): 31%
- residual activity ([3]; compound 1.0 µM): 5%
- residual activity ([4]; compound 0.1 µM): 54%
- residual activity ([4]; compound 1.0 µM): 22%
- residual activity ([5]; compound 0.1 µM): 101%
- residual activity ([5]; compound 1.0 µM): 42%
- residual activity ([6]; compound 0.1 µM): 59%
- residual activity ([6]; compound 1.0 µM): 24%
- residual activity ([7]; compound 0.1 µM): 60%
- residual activity ([7]; compound 1.0 µM): 11%
- residual activity ([8]; compound 1.0 µM): 31%
- residual activity ([9]; compound 0.1 µM): 31%
- residual activity ([9]; compound 1.0 µM): 7%
- residual activity ([10]; compound 0.1 µM): 19%
- residual activity ([10]; compound 1.0 µM): 5%
- residual activity ([11]; compound 0.1 µM): 104%
- residual activity ([11]; compound 1.0 µM): 102%
- residual activity ([12]; compound 0.1 µM): 46%
- residual activity ([12]; compound 1.0 µM): 6%
- residual activity ([13]; compound 0.1 µM): 30%
- residual activity ([13]; compound 1.0 µM): 23%
- residual activity ([14]; compound 0.1 µM): 79%
- residual activity ([14]; compound 1.0 µM): 39%
- residual activity ([15]; compound 0.1 µM): 101%
- residual activity ([15]; compound 1.0 µM): 71%
SMILES: COc1ccc(-n2ncc3cnc(Nc4cc(OC)c(OC)c(OCCCN5CCN(C)CC5)c4)nc32)cc1

- residual activity ([1]; compound 0.1 µM): 85%
- residual activity ([1]; compound 1.0 µM): 104%
- residual activity ([1]; compound 10.0 µM): 99%
- residual activity ([2]; compound 0.1 µM): 88%
- residual activity ([2]; compound 1.0 µM): 95%
- residual activity ([2]; compound 10.0 µM): 76%
- residual activity ([3]; compound 0.1 µM): 105%
- residual activity ([3]; compound 1.0 µM): 108%
- residual activity ([3]; compound 10.0 µM): 68%
- residual activity ([4]; compound 0.1 µM): 93%
- residual activity ([4]; compound 1.0 µM): 107%
- residual activity ([4]; compound 10.0 µM): 101%
- residual activity ([5]; compound 0.1 µM): 99%
- residual activity ([5]; compound 1.0 µM): 117%
- residual activity ([5]; compound 10.0 µM): 104%
- residual activity ([6]; compound 0.1 µM): 69%
- residual activity ([6]; compound 1.0 µM): 71%
- residual activity ([6]; compound 10.0 µM): 38%
- residual activity ([7]; compound 0.1 µM): 71%
- residual activity ([7]; compound 1.0 µM): 34%
- residual activity ([7]; compound 10.0 µM): 9%
- residual activity ([8]; compound 0.1 µM): 110%
- residual activity ([8]; compound 1.0 µM): 81%
- residual activity ([8]; compound 10.0 µM): 28%
- residual activity ([9]; compound 0.1 µM): 87%
- residual activity ([9]; compound 1.0 µM): 80%
- residual activity ([9]; compound 10.0 µM): 39%
- residual activity ([10]; compound 0.1 µM): 108%
- residual activity ([10]; compound 1.0 µM): 115%
- residual activity ([11]; compound 0.1 µM): 78%
- residual activity ([11]; compound 1.0 µM): 100%
- residual activity ([11]; compound 10.0 µM): 81%
- residual activity ([12]; compound 0.1 µM): 10%
- residual activity ([12]; compound 1.0 µM): 4%
- residual activity ([12]; compound 10.0 µM): 8%
- residual activity ([13]; compound 0.1 µM): 97%
- residual activity ([13]; compound 1.0 µM): 84%
- residual activity ([14]; compound 1.0 µM): 99%
- residual activity ([15]; compound 0.1 µM): 96%
- residual activity ([15]; compound 1.0 µM): 96%
- residual activity ([15]; compound 10.0 µM): 82%
SMILES: C=CC(=O)N1CCC[C@@H](n2nc(-c3ccc(Oc4ccccc4)cc3)c3c(N)ncnc32)C1

SMILES: O=C(N[C@@H](COc1ccc2[nH]c(=O)[nH]c2c1)c1ccccc1)c1cccn(Cc2ccc(F)c(F)c2)c1=O
- residual activity ([1]; compound 0.1 µM): 91%
- residual activity ([1]; compound 1.0 µM): 103%
- residual activity ([2]; compound 0.1 µM): 118%
- residual activity ([2]; compound 1.0 µM): 107%
- residual activity ([2]; compound 10.0 µM): 121%
- residual activity ([3]; compound 0.1 µM): 93%
- residual activity ([3]; compound 1.0 µM): 103%
- residual activity ([3]; compound 10.0 µM): 86%
- residual activity ([4]; compound 0.1 µM): 102%
- residual activity ([4]; compound 1.0 µM): 106%
- residual activity ([5]; compound 0.1 µM): 101%
- residual activity ([5]; compound 1.0 µM): 118%
- residual activity ([5]; compound 10.0 µM): 106%
- residual activity ([6]; compound 0.1 µM): 98%
- residual activity ([6]; compound 1.0 µM): 88%
- residual activity ([6]; compound 10.0 µM): 107%
- residual activity ([7]; compound 0.1 µM): 104%
- residual activity ([7]; compound 1.0 µM): 100%
- residual activity ([7]; compound 10.0 µM): 96%
- residual activity ([8]; compound 0.1 µM): 107%
- residual activity ([8]; compound 1.0 µM): 104%
- residual activity ([8]; compound 10.0 µM): 96%
- residual activity ([9]; compound 0.1 µM): 106%
- residual activity ([9]; compound 1.0 µM): 105%
- residual activity ([9]; compound 10.0 µM): 98%
- residual activity ([10]; compound 0.1 µM): 117%
- residual activity ([10]; compound 1.0 µM): 118%
- residual activity ([10]; compound 10.0 µM): 108%
- residual activity ([11]; compound 0.1 µM): 101%
- residual activity ([11]; compound 1.0 µM): 110%
- residual activity ([11]; compound 10.0 µM): 106%
- residual activity ([12]; compound 0.1 µM): 120%
- residual activity ([12]; compound 1.0 µM): 129%
- residual activity ([12]; compound 10.0 µM): 119%
- residual activity ([13]; compound 0.1 µM): 92%
- residual activity ([13]; compound 1.0 µM): 107%
- residual activity ([13]; compound 10.0 µM): 79%
- residual activity ([14]; compound 0.1 µM): 97%
- residual activity ([14]; compound 1.0 µM): 103%
- residual activity ([14]; compound 10.0 µM): 99%
- residual activity ([15]; compound 0.1 µM): 97%
- residual activity ([15]; compound 1.0 µM): 96%
- residual activity ([15]; compound 10.0 µM): 83%
